Experimental data as given in patent publication US20100076015A1, “Aminopyridine Derivatives” (VANTIA LIMITED, priority 2008, published 2010).

Molecular target: T1, Human KLK1 (Homo sapiens, UniProt P06870)
T1 construct: purchased Callbiochem (Calbiochem)
Experiment: Determination of the IC50 for KLK1 (fluorogenic substrate H-DVal-Leu-Arg-AFC)
Assay type: biochemical
Conditions: 37° C.
In short: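 Human KLK1 incubated at 37 °C with fluorogenic substrate H-DVal-Leu-Arg-AFC and a range of test compound concentrations. Residual activity was taken as initial reaction rate from absorbance change at 410 nm, and the IC50 derived from it.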

T1 sequence (P06870 25-262): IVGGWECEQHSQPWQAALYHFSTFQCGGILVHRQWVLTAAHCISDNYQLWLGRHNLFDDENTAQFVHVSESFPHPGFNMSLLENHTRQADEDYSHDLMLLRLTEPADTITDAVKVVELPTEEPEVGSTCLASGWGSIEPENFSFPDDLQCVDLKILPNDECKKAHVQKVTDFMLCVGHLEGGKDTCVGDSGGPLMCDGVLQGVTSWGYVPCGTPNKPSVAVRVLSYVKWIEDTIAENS

Structure (SMILES) | IC50
COc1ccc(CN(C)CC(=O)N[C@@H](Cc2ccc(F)c(F)c2)C(=O)NCc2ccc(N)nc2)cc1 [Example 166, (S)—N-(6-Amino-pyridin-3-ylmethyl)-3-(3,4-difluoro-phenyl)-2-{2-[(4-methoxy-benzyl)-methyl-amino]-acetylamino}-propionamide] | 726 nM
Cc1ccc(-c2ccc(C(=O)N[C@@H](Cc3ccc(Cl)c(Cl)c3)C(=O)NCc3ccc(N)nc3)[nH]2)cc1 [Example 296, 5-p-Tolyl-1H-pyrrole-2-carboxylic acid [(S)-1-[(6-amino-pyridin-3-ylmethyl)-carbamoyl]-2-(3,4-dichloro-phenyl)-ethyl]-amide] | 40.9 nM
Cc1cc[nH]c1C(=O)N[C@@H](Cc1cc(F)cc(F)c1)C(=O)NCc1ccc(N)nc1 [Example 270, 3-Methyl-1H-pyrrole-2-carboxylic acid [(S)-1-[(6-amino-pyridin-3-ylmethyl)-carbamoyl]-2-(3,5-difluoro-phenyl)-ethyl]-amide] | 20.9 nM
CC(C)(C)[C@H](N)C(=O)N[C@@H](C(=O)NCc1ccc(N)nc1)C(C1CCCCC1)C1CCCCC1 [Example 217, (S)-2-Amino-N-{(R)-1-[(6-amino-pyridin-3-ylmethyl)-carbamoyl]-2,2-dicyclohexyl-ethyl}-3,3-dimethyl-butyramide] | 29.3 nM
CC(C(=O)N[C@@H](Cc1cccc(C(F)(F)F)c1)C(=O)NCc1ccc(N)nc1)N1CCCCC1 (stereo partly drawn) [Example 419, N-[(S)-1-[(6-Amino-pyridin-3-ylmethyl)-carbamoyl]-2-(3-trifluoromethyl-phenyl)-ethyl]-2-piperidin-1-yl-propionamide] | 16.3 nM

Further compounds by falling IC50, results first:

IC50 | Structure (SMILES)
75.6 nM | Nc1ccc(CNC(=O)[C@H](Cc2ccc(F)cc2)NC(=O)c2ncc[nH]2)cn1 [Example 287, 1H-Imidazole-2-carboxylic acid [(S)-1-[(6-amino-pyridin-3-ylmethyl)-carbamoyl]-2-(4-fluoro-phenyl)-ethyl]-amide]
42.3 nM | Cc1nc(N)ccc1CNC(=O)[C@H](Cc1cccc(C(F)(F)F)c1)NC(=O)c1cc2ccccc2[nH]1 [Example 309, 1H-Indole-2-carboxylic acid [(S)-1-[(6-amino-2-methyl-pyridin-3-ylmethyl)-carbamoyl]-2-(3-trifluoromethyl-phenyl)-ethyl]-amide]
13.9 nM | CCN(CC)CC(=O)N[C@@H](Cc1ccc(F)cc1)C(=O)NCc1ccc(N)nc1 [Example 380, (S)—N-(6-Amino-pyridin-3-ylmethyl)-2-(2-diethylamino-acetylamino)-3-(4-fluoro-phenyl)-propionamide]
9 nM | Cc1cc(C)c(C(=O)N[C@@H](Cc2cccc(F)c2)C(=O)NCc2ccc(N)nc2)[nH]1 [Example 236, 3,5-Dimethyl-1H-pyrrole-2-carboxylic acid [(S)-1-[(6-amino-pyridin-3-ylmethyl)-carbamoyl]-2-(3-fluoro-phenyl)-ethyl]-amide]
6.3 nM | CCC(C)[C@H](N)C(=O)N[C@@H](CC1CCCC2CCCCC21)C(=O)NCc1ccc(N)nc1 (stereo partly drawn) [Example 12, (S)-2-Amino-3-methyl-pentanoic acid [(S)-1-[(6-amino-pyridin-3-ylmethyl)-carbamoyl]-2-(decahydro-naphthalen-1-yl)-ethyl]-amide]
4.8 nM | CCN(C)C(C)C(=O)NC(Cc1cccc(Cl)c1)C(=O)NCc1ccc(N)nc1 [Example 408, (S)—N-[(S)-1-[6-Amino-pyridin-3-ylmethyl)-carbamoyl]-2-(3-chloro-phenyl)-ethyl]-2-(ethyl-methyl-amino)-propionamide]
0.74 nM | CC(C)[C@H](C(=O)N[C@@H](Cc1ccc(Cl)c(Cl)c1)C(=O)NCc1ccc(N)nc1)N(C)C [Example 399, (R)—N-[(S)-1-[(6-Amino-pyridin-3-ylmethyl)-carbamoyl]-2-(3,4-dichloro-phenyl)-ethyl]-2-dimethylamino-3-methyl-butyramide]
